# In PubChem BioAssay (NCI):
#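 48-hour exposure; five concentrations; linearly interpolated endpoints. TGI: concentration producing complete growth inhibition.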
# Columns and labels:
# Test in all cases: NCI-60 cell line screen, 48 h
# SF-539 CNS = tested on: SF-539 CNS
# CCRF-CEM leukemia = tested on: CCRF-CEM leukemia
# TK-10 renal = tested on: TK-10 renal
# CAKI-1 renal = tested on: CAKI-1 renal
# UACC-62 melanoma = tested on: UACC-62 melanoma
# HOP-62 NSCLC = tested on: HOP-62 NSCLC
# HT29 colon = tested on: HT29 colon
# UACC-257 melanoma = tested on: UACC-257 melanoma
# M14 melanoma = tested on: M14 melanoma
# 786-0 renal = tested on: 786-0 renal
# A549 NSCLC = tested on: A549 NSCLC
# NCI-H23 lung = tested on: NCI-H23 lung
# OVCAR-3 ovarian = tested on: OVCAR-3 ovarian
# HL-60(TB) leukemia = tested on: HL-60(TB) leukemia
# SK-OV-3 ovarian = tested on: SK-OV-3 ovarian
# HCC-2998 colon = tested on: HCC-2998 colon
# KM12 colon = tested on: KM12 colon
# SK-MEL-5 melanoma = tested on: SK-MEL-5 melanoma
# T-47D breast = tested on: T-47D breast
# SK-MEL-2 melanoma = tested on: SK-MEL-2 melanoma
# ACHN renal = tested on: ACHN renal
# MCF7 breast = tested on: MCF7 breast
# MDA-N = tested on: MDA-N
# UO-31 renal = tested on: UO-31 renal
# OVCAR-8 ovarian = tested on: OVCAR-8 ovarian
# HCT-116 colon = tested on: HCT-116 colon
# HS 578T breast = tested on: HS 578T breast
# A498 renal = tested on: A498 renal
# COLO 205 colon = tested on: COLO 205 colon
# DU-145 prostate = tested on: DU-145 prostate
# LOX IMVI melanoma = tested on: LOX IMVI melanoma
# PC-3 prostate = tested on: PC-3 prostate
# RXF 393 renal = tested on: RXF 393 renal
# SF-295 CNS = tested on: SF-295 CNS
# HCT-15 colon = tested on: HCT-15 colon
# MOLT-4 leukemia = tested on: MOLT-4 leukemia
# MALME-3M melanoma = tested on: MALME-3M melanoma
# EKVX NSCLC = tested on: EKVX NSCLC
# SR leukemia = tested on: SR leukemia
# K-562 leukemia = tested on: K-562 leukemia
# OVCAR-5 ovarian = tested on: OVCAR-5 ovarian
# OVCAR-4 ovarian = tested on: OVCAR-4 ovarian
# NCI-H226 lung = tested on: NCI-H226 lung
# NCI/ADR-RES ovarian = tested on: NCI/ADR-RES ovarian
# U251 CNS = tested on: U251 CNS
# SNB-19 CNS = tested on: SNB-19 CNS
# HOP-92 NSCLC = tested on: HOP-92 NSCLC
# MDA-MB-231 breast = tested on: MDA-MB-231 breast
# SNB-75 CNS = tested on: SNB-75 CNS
# RPMI-8226 leukemia = tested on: RPMI-8226 leukemia
# IGROV1 ovarian = tested on: IGROV1 ovarian
# SN12C renal = tested on: SN12C renal
# NCI-H522 lung = tested on: NCI-H522 lung
# BT-549 breast = tested on: BT-549 breast
# MDA-MB-435 = tested on: MDA-MB-435
# SW-620 colon = tested on: SW-620 colon
# NCI-H460 lung = tested on: NCI-H460 lung
# SK-MEL-28 melanoma = tested on: SK-MEL-28 melanoma
# SF-268 CNS = tested on: SF-268 CNS
compound,measurement,setting,value
O=C(/N=C/c1c(O)c2ccccc2oc1=O)Oc1ccccc1,TGI,SF-539 CNS,42.2 µM
same,TGI,CCRF-CEM leukemia,> 100 µM
same,TGI,TK-10 renal,79.6 µM
same,TGI,CAKI-1 renal,94.6 µM
same,TGI,UACC-62 melanoma,79.7 µM
same,TGI,HOP-62 NSCLC,43.6 µM
same,TGI,HT29 colon,> 100 µM
same,TGI,UACC-257 melanoma,92.2 µM
same,TGI,M14 melanoma,> 100 µM
same,TGI,786-0 renal,85.7 µM
same,TGI,A549 NSCLC,> 100 µM
same,TGI,NCI-H23 lung,68.5 µM
same,TGI,OVCAR-3 ovarian,44.2 µM
same,TGI,HL-60(TB) leukemia,> 100 µM
same,TGI,SK-OV-3 ovarian,66 µM
same,TGI,HCC-2998 colon,> 100 µM
same,TGI,KM12 colon,> 100 µM
same,TGI,SK-MEL-5 melanoma,> 100 µM
same,TGI,T-47D breast,91.9 µM
same,TGI,SK-MEL-2 melanoma,36.1 µM
same,TGI,ACHN renal,> 100 µM
same,TGI,MCF7 breast,> 100 µM
same,TGI,MDA-N,86.7 µM
same,TGI,UO-31 renal,63.6 µM
same,TGI,OVCAR-8 ovarian,91.9 µM
same,TGI,HCT-116 colon,71.8 µM
same,TGI,HS 578T breast,32.1 µM
same,TGI,A498 renal,46.2 µM
same,TGI,COLO 205 colon,> 100 µM
same,TGI,DU-145 prostate,> 100 µM
same,TGI,LOX IMVI melanoma,80.9 µM
same,TGI,PC-3 prostate,> 100 µM
same,TGI,RXF 393 renal,31.1 µM
same,TGI,SF-295 CNS,> 100 µM
same,TGI,HCT-15 colon,> 100 µM
same,TGI,MOLT-4 leukemia,96.4 µM
same,TGI,MALME-3M melanoma,61.7 µM
same,TGI,EKVX NSCLC,> 100 µM
same,TGI,SR leukemia,> 100 µM
same,TGI,K-562 leukemia,> 100 µM
same,TGI,OVCAR-5 ovarian,> 100 µM
same,TGI,OVCAR-4 ovarian,65.8 µM
same,TGI,NCI-H226 lung,44.9 µM
same,TGI,NCI/ADR-RES ovarian,95.8 µM
same,TGI,U251 CNS,87.5 µM
same,TGI,SNB-19 CNS,> 100 µM
same,TGI,HOP-92 NSCLC,79.9 µM
same,TGI,MDA-MB-231 breast,84.1 µM
same,TGI,SNB-75 CNS,68.4 µM
same,TGI,RPMI-8226 leukemia,> 100 µM
same,TGI,IGROV1 ovarian,60.7 µM
same,TGI,SN12C renal,51.7 µM
same,TGI,NCI-H522 lung,> 100 µM
same,TGI,BT-549 breast,81 µM
same,TGI,MDA-MB-435,66.5 µM
same,TGI,SW-620 colon,> 100 µM
same,TGI,NCI-H460 lung,> 100 µM
COc1cccc2cc(C(=O)O)c(=O)oc12,TGI,SF-539 CNS,> 100 µM
same,TGI,CCRF-CEM leukemia,> 100 µM
same,TGI,TK-10 renal,> 100 µM
same,TGI,CAKI-1 renal,> 100 µM
same,TGI,UACC-62 melanoma,> 100 µM
same,TGI,HOP-62 NSCLC,> 100 µM
same,TGI,HT29 colon,> 100 µM
same,TGI,UACC-257 melanoma,> 100 µM
same,TGI,M14 melanoma,> 100 µM
same,TGI,786-0 renal,> 100 µM
same,TGI,A549 NSCLC,> 100 µM
same,TGI,NCI-H23 lung,> 100 µM
same,TGI,OVCAR-3 ovarian,> 100 µM
same,TGI,HL-60(TB) leukemia,> 100 µM
same,TGI,HCC-2998 colon,> 100 µM
same,TGI,KM12 colon,> 100 µM
same,TGI,SK-MEL-5 melanoma,> 100 µM
same,TGI,T-47D breast,> 100 µM
same,TGI,SK-MEL-2 melanoma,> 100 µM
same,TGI,ACHN renal,> 100 µM
same,TGI,MCF7 breast,> 100 µM
same,TGI,SK-MEL-28 melanoma,> 100 µM
same,TGI,MDA-N,> 100 µM
same,TGI,UO-31 renal,> 100 µM
same,TGI,OVCAR-8 ovarian,> 100 µM
same,TGI,HCT-116 colon,> 100 µM
same,TGI,HS 578T breast,> 100 µM
same,TGI,A498 renal,> 100 µM
same,TGI,COLO 205 colon,> 100 µM
same,TGI,DU-145 prostate,> 100 µM
same,TGI,LOX IMVI melanoma,> 100 µM
same,TGI,PC-3 prostate,> 100 µM
same,TGI,RXF 393 renal,> 100 µM
same,TGI,SF-295 CNS,> 100 µM
same,TGI,HCT-15 colon,> 100 µM
same,TGI,MOLT-4 leukemia,> 100 µM
same,TGI,MALME-3M melanoma,> 100 µM
same,TGI,EKVX NSCLC,> 100 µM
same,TGI,SR leukemia,> 100 µM
same,TGI,K-562 leukemia,> 100 µM
same,TGI,OVCAR-5 ovarian,> 100 µM
same,TGI,OVCAR-4 ovarian,> 100 µM
same,TGI,NCI-H226 lung,> 100 µM
same,TGI,NCI/ADR-RES ovarian,> 100 µM
same,TGI,U251 CNS,> 100 µM
same,TGI,SNB-19 CNS,> 100 µM
same,TGI,HOP-92 NSCLC,> 100 µM
same,TGI,MDA-MB-231 breast,> 100 µM
same,TGI,SNB-75 CNS,> 100 µM
same,TGI,RPMI-8226 leukemia,> 100 µM
same,TGI,IGROV1 ovarian,> 100 µM
same,TGI,SN12C renal,> 100 µM
same,TGI,NCI-H522 lung,> 100 µM
same,TGI,BT-549 breast,> 100 µM
same,TGI,MDA-MB-435,> 100 µM
same,TGI,SF-268 CNS,> 100 µM
same,TGI,SW-620 colon,> 100 µM
same,TGI,NCI-H460 lung,> 100 µM
